{
  "source": "paper PMC10387993",
  "about": "“New pyrimidine-N-β-D-glucosides: synthesis, biological evaluation, and molecular docking investigations” (Turkish Journal of Chemistry, 2023)",
  "format_in_all_cases": "cell-based",
  "key": {"[1]": {"system": "MCF7", "assay": "cells", "settings": "Homo sapiens; for LC50 (concentration causing 50% net cell loss relative to time zero): MCF7, read-out: LC50; for GI50 / IC50 / IC (total growth inhibition): MCF7, MTT; for IC50: read-out: IC50; for IC (total growth inhibition): read-out: TGI", "in_short": "(§1)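 Proliferation was measured with the MTT method on cells grown in serum-supplemented DMEM or RPMI 1640 and seeded near 1 × 10^4 per well. Growth parameters GI50, TGI and LC50 were computed from absorbances at time zero, in control growth and under drug.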"}, "[2]": {"assay": "in vitro", "settings": "human, LC50", "in_short": "as §1"}, "[3]": {"system": "normal FL cells", "assay": "cells", "settings": "FL normal cells, MTT; for IC50: read-out: IC50; for IC (total growth inhibition): read-out: TGI", "in_short": "as §1"}, "[4]": {"assay": "LDH cytotoxic activity assay, C6", "settings": "rat, C6 glioma cells; for cytotoxicity at 24 h, 25 μg/mL: C6, 25 μg/mL; for cytotoxicity at 24 h, 50 μg/mL: C6, 50 μg/mL; for cytotoxicity at 24 h, 75 μg/mL: C6, 75 μg/mL; for cytotoxicity at 24 h, 100 μg/mL: C6, 100 μg/mL", "in_short": "(§2)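 LDH release, A492–630 nm; ~5 × 10^3 cells/well, triplicate; cpd 25/50/75/100 μg/mL, 24 h, 37 °C, 5% CO2; DMEM or RPMI 1640 + 10% FBS.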"}, "[5]": {"assay": "LDH cytotoxic activity assay, HeLa", "settings": "human, HeLa cells", "in_short": "as §2"}, "[6]": {"assay": "LDH cytotoxic activity assay, HT29", "settings": "human, HT29 cells; for cytotoxicity at 24 h, 25 μg/mL: HT29, 25 μg/mL; for cytotoxicity at 24 h, 50 μg/mL: HT29, 50 μg/mL; for cytotoxicity at 24 h, 75 μg/mL: HT29, 75 μg/mL; for cytotoxicity at 24 h, 100 μg/mL: HT29, 100 μg/mL", "in_short": "as §2"}, "[7]": {"system": "A. actinomycetemcomitans ATCC 33384", "assay": "Microdilution MIC assay", "settings": "Aggregatibacter actinomycetemcomitans, ATCC33384; A. actinomycetemcomitans ATCC 33384, 24 h at 35 °C", "in_short": "(§3)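 MICs come from a microwell dilution format incubated for 24 h at 35 °C, with the endpoint being the lowest concentration that prevented visible growth.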"}, "[8]": {"system": "E. coli ATCC 25922", "assay": "Microdilution MIC assay", "settings": "Escherichia coli, ATCC25922; E. coli ATCC 25922, 24 h at 35 °C", "in_short": "as §3"}, "[9]": {"system": "E. coli ESBL ATCC 35218", "assay": "Microdilution MIC assay", "settings": "Escherichia coli, ATCC35218; E. coli ESBL ATCC 35218, 24 h at 35 °C", "in_short": "as §3"}, "[10]": {"system": "E. faecalis ATCC 29212", "assay": "Microdilution MIC assay", "settings": "Enterococcus faecalis, ATCC29212, 24 h, E. faecalis ATCC 29212, 24 h at 35 °C; read-out: MIC", "in_short": "as §3"}, "[11]": {"system": "E. faecalis VRE ATCC 19433", "assay": "Microdilution MIC assay", "settings": "Enterococcus faecalis; E. faecalis VRE ATCC 19433, 24 h at 35 °C", "in_short": "as §3"}, "[12]": {"system": "P. aeruginosa AGME ATCC 27853", "assay": "Microdilution MIC assay", "settings": "Pseudomonas aeruginosa, ATCC27853; P. aeruginosa AGME ATCC 27853, 24 h at 35 °C", "in_short": "as §3"}, "[13]": {"system": "S. aureus ATCC 25923", "assay": "Microdilution MIC assay", "settings": "Staphylococcus aureus, ATCC25923, 24 h, S. aureus ATCC 25923, 24 h at 35 °C; read-out: MIC", "in_short": "as §3"}, "[14]": {"system": "S. aureus MRSA ATCC 46300", "assay": "Microdilution MIC assay", "settings": "Staphylococcus aureus; S. aureus MRSA ATCC 46300, 24 h at 35 °C; read-out: MIC", "in_short": "as §3"}, "[15]": {"system": "S. aureus MSSA ATCC 29213", "assay": "Microdilution MIC assay", "settings": "S. aureus MSSA ATCC 29213, 24 h at 35 °C", "in_short": "as §3"}, "[16]": {"system": "S. gordonii NCTC 7870", "assay": "Microdilution MIC assay", "settings": "Streptococcus gordonii, NCTC7870; S. gordonii NCTC 7870, 24 h at 35 °C", "in_short": "as §3"}, "[17]": {"system": "S. mutans ATCC 35668", "assay": "Microdilution MIC assay", "settings": "Streptococcus mutans, ATCC35668, 24 h, S. mutans ATCC 35668, 24 h at 35 °C; read-out: MIC", "in_short": "as §3"}, "[18]": {"settings": "Staphylococcus aureus, 24 h, read-out: MIC"}},
  "note": "Read-outs that look alike come from different tables or passages of the source.",
  "data": [
    {"smiles": "Cc1ccc(-c2cc(-c3ccncc3)nc(N[C@@H]3O[C@H](CO)[C@@H](O)[C@H](O)[C@H]3O)n2)cc1", "note": "[Compound 9, N-[4-(4-methylphenyl)-6-pyridin-4-ylpyrimidin-2-yl]-β-D-glucopyranosylamine]", "values": [
      {"measurement": "LC50 (concentration causing 50% net cell loss relative to time zero)", "setting": "[1]", "value": "> 500", "unit": "µg/mL"},
      {"measurement": "GI50", "setting": "[1]", "value": 1.89, "unit": "µg/mL"},
      {"measurement": "IC50", "setting": "[1]", "value": "> 500", "unit": "µg/mL"},
      {"measurement": "IC (total growth inhibition)", "setting": "[1]", "value": "> 500", "unit": "µg/mL"},
      {"measurement": "LC50 (concentration causing 50% net cell loss)", "setting": "[2]", "value": "> 500", "unit": "µg/mL"},
      {"measurement": "GI50", "setting": "[3]", "value": 7.04, "unit": "µg/mL"},
      {"measurement": "IC50", "setting": "[3]", "value": "> 500", "unit": "µg/mL"},
      {"measurement": "IC (total growth inhibition)", "setting": "[3]", "value": "> 500", "unit": "µg/mL"},
      {"measurement": "cytotoxicity at 24 h, 25 μg/mL", "setting": "[4]", "value": 28.4, "unit": "%"},
      {"measurement": "cytotoxicity at 24 h, 50 μg/mL", "setting": "[4]", "value": 34.1, "unit": "%"},
      {"measurement": "cytotoxicity at 24 h, 75 μg/mL", "setting": "[4]", "value": 70.2, "unit": "%"},
      {"measurement": "cytotoxicity at 24 h, 100 μg/mL", "setting": "[4]", "value": 90.6, "unit": "%"},
      {"measurement": "cytotoxicity at 24 h, 25 μg/mL", "setting": "[5]", "value": 10, "unit": "%"},
      {"measurement": "cytotoxicity at 24 h, 50 μg/mL", "setting": "[5]", "value": 34.3, "unit": "%"},
      {"measurement": "cytotoxicity at 24 h, 75 μg/mL", "setting": "[5]", "value": 49.6, "unit": "%"},
      {"measurement": "cytotoxicity at 24 h, 100 μg/mL", "setting": "[5]", "value": 55.9, "unit": "%"},
      {"measurement": "cytotoxicity at 24 h, 25 μg/mL", "setting": "[6]", "value": 25.7, "unit": "%"},
      {"measurement": "cytotoxicity at 24 h, 50 μg/mL", "setting": "[6]", "value": 40.9, "unit": "%"},
      {"measurement": "cytotoxicity at 24 h, 75 μg/mL", "setting": "[6]", "value": 74.7, "unit": "%"},
      {"measurement": "cytotoxicity at 24 h, 100 μg/mL", "setting": "[6]", "value": 81.8, "unit": "%"},
      {"measurement": "MIC", "setting": "[7]", "value": 500, "unit": "µg/mL"},
      {"measurement": "MIC", "setting": "[8]", "value": "> 1000", "unit": "µg/mL"},
      {"measurement": "MIC", "setting": "[9]", "value": "> 1000", "unit": "µg/mL"},
      {"measurement": "MIC", "setting": "[10]", "value": 1000, "unit": "µg/mL"},
      {"measurement": "MIC", "setting": "[11]", "value": 1000, "unit": "µg/mL"},
      {"measurement": "MIC", "setting": "[12]", "value": "> 1000", "unit": "µg/mL"},
      {"measurement": "MIC", "setting": "[13]", "value": 1000, "unit": "µg/mL"},
      {"measurement": "MIC", "setting": "[14]", "value": 1000, "unit": "µg/mL"},
      {"measurement": "MIC", "setting": "[15]", "value": 125, "unit": "µg/mL"},
      {"measurement": "MIC", "setting": "[15]; [18]", "value": "62.5 to 125", "unit": "µg/mL"},
      {"measurement": "MIC", "setting": "[16]", "value": 1000, "unit": "µg/mL"},
      {"measurement": "MIC", "setting": "[17]", "value": 250, "unit": "µg/mL"}
    ]},
    {"smiles": "CC(=O)OC[C@H]1O[C@@H](Nc2nc(-c3ccccn3)cc(-c3ccccc3C)n2)[C@H](OC(C)=O)[C@@H](OC(C)=O)[C@@H]1OC(C)=O", "note": "[Compound 10, 2,3,4,6-tetra-O-acetyl-N-[4-(2-methylphenyl)-6-pyridin-2-ylpyrimidin-2-yl]-β-D-glucopyranosylamine]", "values": [
      {"measurement": "LC50 (concentration causing 50% net cell loss relative to time zero)", "setting": "[1]", "value": "> 500", "unit": "µg/mL"},
      {"measurement": "GI50", "setting": "[1]", "value": 1.66, "unit": "µg/mL"},
      {"measurement": "IC50", "setting": "[1]", "value": "> 500", "unit": "µg/mL"},
      {"measurement": "IC (total growth inhibition)", "setting": "[1]", "value": "> 500", "unit": "µg/mL"},
      {"measurement": "LC50 (concentration causing 50% net cell loss)", "setting": "[2]", "value": "> 500", "unit": "µg/mL"},
      {"measurement": "GI50", "setting": "[3]", "value": 22.8, "unit": "µg/mL"},
      {"measurement": "IC50", "setting": "[3]", "value": "> 500", "unit": "µg/mL"},
      {"measurement": "IC (total growth inhibition)", "setting": "[3]", "value": "> 500", "unit": "µg/mL"},
      {"measurement": "cytotoxicity at 24 h, 25 μg/mL", "setting": "[4]", "value": 22.8, "unit": "%"},
      {"measurement": "cytotoxicity at 24 h, 50 μg/mL", "setting": "[4]", "value": 54.3, "unit": "%"},
      {"measurement": "cytotoxicity at 24 h, 75 μg/mL", "setting": "[4]", "value": 77.1, "unit": "%"},
      {"measurement": "cytotoxicity at 24 h, 100 μg/mL", "setting": "[4]", "value": 93.5, "unit": "%"},
      {"measurement": "cytotoxicity at 24 h, 25 μg/mL", "setting": "[5]", "value": 16.8, "unit": "%"},
      {"measurement": "cytotoxicity at 24 h, 50 μg/mL", "setting": "[5]", "value": 40.7, "unit": "%"},
      {"measurement": "cytotoxicity at 24 h, 75 μg/mL", "setting": "[5]", "value": 51.7, "unit": "%"},
      {"measurement": "cytotoxicity at 24 h, 100 μg/mL", "setting": "[5]", "value": 58.4, "unit": "%"},
      {"measurement": "cytotoxicity at 24 h, 25 μg/mL", "setting": "[6]", "value": 29.4, "unit": "%"},
      {"measurement": "cytotoxicity at 24 h, 50 μg/mL", "setting": "[6]", "value": 51.8, "unit": "%"},
      {"measurement": "cytotoxicity at 24 h, 75 μg/mL", "setting": "[6]", "value": 64.5, "unit": "%"},
      {"measurement": "cytotoxicity at 24 h, 100 μg/mL", "setting": "[6]", "value": 95.2, "unit": "%"},
      {"measurement": "MIC", "setting": "[7]", "value": "> 1000", "unit": "µg/mL"},
      {"measurement": "MIC", "setting": "[8]", "value": "> 1000", "unit": "µg/mL"},
      {"measurement": "MIC", "setting": "[9]", "value": "> 1000", "unit": "µg/mL"},
      {"measurement": "MIC", "setting": "[10]", "value": 500, "unit": "µg/mL"},
      {"measurement": "MIC", "setting": "[11]", "value": 125, "unit": "µg/mL"},
      {"measurement": "MIC", "setting": "[12]", "value": "> 1000", "unit": "µg/mL"},
      {"measurement": "MIC", "setting": "[13]", "value": "> 1000", "unit": "µg/mL"},
      {"measurement": "MIC", "setting": "[14]", "value": 1000, "unit": "µg/mL"},
      {"measurement": "MIC", "setting": "[15]; [18]", "value": "> 1000", "unit": "µg/mL"},
      {"measurement": "MIC", "setting": "[16]", "value": "> 1000", "unit": "µg/mL"},
      {"measurement": "MIC", "setting": "[17]", "value": 500, "unit": "µg/mL"}
    ]}
  ]
}
